Reference: patent US9776965B2, “Pyrrolidin-2-one and piperidin-2-one derivatives as 11-beta hydroxysteroid dehydrogenase inhibitors” (Janssen Pharmaceutica N.V., priority 2004, dated 2017)

How the values were obtained:
11b-HSD1 [1] = target: 11b-HSD1 (Homo sapiens, UniProt P28845); assay: Enzymatic assay, 11b-HSD1 dependent conversion of cortisone into cortisol (reductase activity); type: biochemical; conditions: recombinant protein, 2 μM cortisone, 45 min at 37 C; read-out: [C1] HSD1-prot Reduct Score
Sequence of 11b-HSD1 (Homo sapiens, UniProt P28845) (P28845 whole entry): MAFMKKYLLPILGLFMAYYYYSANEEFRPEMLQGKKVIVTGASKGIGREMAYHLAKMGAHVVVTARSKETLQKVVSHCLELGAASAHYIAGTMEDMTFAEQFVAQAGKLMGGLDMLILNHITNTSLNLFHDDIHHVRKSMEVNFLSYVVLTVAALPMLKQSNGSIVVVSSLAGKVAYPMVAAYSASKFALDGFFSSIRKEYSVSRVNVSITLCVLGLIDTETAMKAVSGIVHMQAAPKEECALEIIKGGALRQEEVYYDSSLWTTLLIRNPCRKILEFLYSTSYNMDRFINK
Experimental: The effects of compounds on 11b-HSD1 dependent conversion of cortisone into cortisol (reductase activity) was studied in a reaction mixture containing 30 mM Tris-HCl buffer pH 7.2, 180 μM NADPH, 1 mM EDTA, 2 μM cortisone, 1 μl drug and/or solvent and 11 μg recombinant protein in a final volume of 100 μl.
All incubations were performed for 45 min at 37 C in a water bath. The reaction was stopped by adding 100 μl acetonitrile containing 20 μg corticosterone as internal standard. After centrifugation, the product formation was analysed in the supernatant by HPLC on a Hypersyl BDS-C18 column using 0.05 mM ammonium acetate/methanol (50/50) as solvent. In all of the aforementioned assays, the drugs to be tested were taken from a stock solution and tested at a final concentration ranging from […] to 3.10^−9M. From the thus obtained dose response curves, the pIC50 value was calculated and scored as follows; Score 1=pIC50 value<5, Score 2=pIC50 value in the range of 5 to 6, Score 3=pIC50 value>6. (in this table NT stands for Not Tested).

11b-HSD2 = target: T1, 11b-HSD2 (Homo sapiens, UniProt P80365); assay: Cellular assay, 11b-HSD2 activity in HepG2 cells; type: cell-based; design: endogenous in cells; host or cells: HepG2 (ATCC HB-8065); conditions: 4 hour pre-incubation, read-out: [C2] HSD2 cellular HepG2 Score
T1 sequence (P80365 1-405): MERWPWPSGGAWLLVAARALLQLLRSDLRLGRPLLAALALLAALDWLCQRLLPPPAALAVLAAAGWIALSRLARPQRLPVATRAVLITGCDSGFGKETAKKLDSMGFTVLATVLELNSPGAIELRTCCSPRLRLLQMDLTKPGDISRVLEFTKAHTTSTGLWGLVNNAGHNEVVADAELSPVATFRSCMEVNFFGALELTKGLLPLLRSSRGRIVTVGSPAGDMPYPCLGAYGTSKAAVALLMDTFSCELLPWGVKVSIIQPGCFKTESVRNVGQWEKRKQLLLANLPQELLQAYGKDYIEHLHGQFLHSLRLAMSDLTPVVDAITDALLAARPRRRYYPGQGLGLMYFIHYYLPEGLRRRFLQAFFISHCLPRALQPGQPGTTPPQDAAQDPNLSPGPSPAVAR
Experimental: The effects on 11b-HSD2 activity was studied in HepG2 and LCC-PK1-cells HepG2-cells (ATCC HB-8065) were seeded in 12 well plates at a density of 100,000 cells/ml and grown at 37 C in a humidified 5% CO2 atmosphere in MEM-Rega-3 medium supplemented with 10% heat inactivated foetal calf serum, 2 mM L-glutamine and sodium bicarbonate). Medium was refreshed twice a week.
Following a 4 hour pre-incubation with test compound, 0.5 μCi ^3H-cortisol or corticosterone, was added to the cultures. One hour later, the medium was extracted on Extrelut^3-columns with 15 ml diethyl ether and the extract was analysed by HPLC as described above.
(§1) As for the enzymatic assays, the compounds to be tested were taken from a stock solution and tested at a final concentration ranging from […] to 3.10^−9M. From the thus obtained dose response curves, the pIC50 value was calculated and scored as follows; Score 1=pIC50 value<5, Score 2=pIC50 value in the range of 5 to 6, Score 3=pIC50 value>6. Some of the thus obtained results are summarized in the table below (in this table NT stands for Not Tested).

11b-HSD1 [2] = target: T2, 11b-HSD1 (Mus musculus, UniProt P50172); assay: Cellular assay, 11b-HSD1 activity in differentiated 3T3-L1 cells; type: cell-based; conditions: 4 hour pre-incubation, read-out: [C2] HSD1 cellular 3T3-L1 Score
T2 construct: Fibroblasts were differentiated into adipocytes; endogenous in cells; host or cells: differentiated 3T3-L1 cells (ATCC-CL-173)
T2 sequence (P50172 whole entry): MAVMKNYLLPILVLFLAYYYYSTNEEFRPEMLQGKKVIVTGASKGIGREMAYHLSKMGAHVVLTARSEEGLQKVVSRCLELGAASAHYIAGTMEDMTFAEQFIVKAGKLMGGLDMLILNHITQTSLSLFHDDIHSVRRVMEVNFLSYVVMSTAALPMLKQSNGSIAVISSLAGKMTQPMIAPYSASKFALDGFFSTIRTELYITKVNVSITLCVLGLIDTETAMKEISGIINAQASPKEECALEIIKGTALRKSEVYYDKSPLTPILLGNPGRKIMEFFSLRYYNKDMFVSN
Experimental: The effects on 11b-HSD1 activity was measured in differentiated 3T3-L1 cells and rat hepatocytes.
Mouse fibroblast 3T3-L1 cells (ATCC-CL-173) were seeded at a density of 16500 cells/ml in 12 well plates and grown for 7 days in DMEM medium (supplemented with 10% heat inactivated foetal calf serum, 2 mM glutamine and 25 mg gentamycin) at 37 C in a humidified 5% CO2 atmosphere. Medium was refreshed twice a week. Fibroblasts were differentiated into adipocytes at 37 C in a 5% CO2 humidified atmosphere in growth medium containing 2 μg/ml insulin, 55 μg/ml IBMX and 39.2 μg/ml dexamethasone.
Following a 4 hour pre-incubation with test compound, 0.5 μCi ^3H-cortisone or dehydrocorticosterone, was added to the cultures. One hour later, the medium was extracted on Extrelut^3-columns with 15 ml diethyl ether and the extract was analysed by HPLC as described above.
as §1

IC50 (11b-HSD1 [1])	IC50 (11b-HSD2)	IC50 (11b-HSD1 [2])	Compound
1 to 10 µM	> 10 µM	1 to 10 µM	Cc1ccccc1C[C@H]1CCN([C@@H](C)c2ccccc2)C1=O [Compound 2]
1 to 10 µM	> 10 µM	1 to 10 µM	C[C@@H](c1ccccc1)N1CC[C@H](Cc2ccccc2)C1=O [Compound 6]
1 to 10 µM	> 10 µM	< 1 µM	Cc1ccc([C@H](O)[C@@H]2CCN([C@@H](C)c3ccccc3)C2=O)c(C)c1 [Compound 69]
> 10 µM	> 10 µM	1 to 10 µM	Cc1ccc(C[C@H]2CCN([C@@H](C)c3ccccc3)C2=O)cc1 [Compound 4]
1 to 10 µM	> 10 µM	1 to 10 µM	C[C@@H](c1ccccc1)N1CC[C@@H](Cc2ccccc2)C1=O [Compound 5]
< 1 µM	> 10 µM	1 to 10 µM	Cc1ccc(C[C@@H]2CCN([C@@H](C)c3ccccc3)C2=O)cc1 [Compound 3]
1 to 10 µM		1 to 10 µM	C[C@@H](c1ccccc1)N1CC[C@@H](Cc2cccc(Cl)c2)C1=O [Compound 18]
> 10 µM		> 10 µM	C[C@H](c1ccccc1)N1CC[C@@H](Cc2cccc(Cl)c2)C1=O [Compound 46]
> 10 µM		> 10 µM	Cc1ccccc1CC1(Cc2ccccc2)CCN([C@@H](C)c2ccccc2)C1=O (mixture of isomers) [Compound 147]
> 10 µM		1 to 10 µM	COc1cccc(C[C@H]2CCN([C@H](C)c3ccccc3)C2=O)c1 [Compound 66]
> 10 µM		1 to 10 µM	COc1cccc(C[C@@H]2CCN([C@H](C)c3ccccc3)C2=O)c1 [Compound 52]
> 10 µM		1 to 10 µM	O=C1C(Cc2cccc(Cl)c2)CCN1Cc1ccccc1 (centres unmarked) [Compound 51]
1 to 10 µM		1 to 10 µM	C[C@H](C[C@@H]1CCN([C@@H](C)c2ccccc2)C1=O)c1ccccc1 [Compound 136]
1 to 10 µM		1 to 10 µM	Cc1ccccc1CC[C@H]1CCN([C@@H](C)c2ccccc2)C1=O [Compound 128]
> 10 µM		> 10 µM	COc1ccc(CC[C@H]2CCN([C@@H](C)c3ccccc3)C2=O)cc1OC [Compound 126]
1 to 10 µM		< 1 µM	C[C@H](c1ccccc1)N1CC[C@@H](Cc2ccccc2C#N)C1=O [Compound 49]
1 to 10 µM		< 1 µM	C[C@@H](c1ccccc1)N1CC[C@H](Cc2ccc3c(c2)OCO3)C1=O [Compound 152]
> 10 µM		1 to 10 µM	COc1ccc(CC[C@H]2CCN([C@@H](C)c3ccccc3)C2=O)cc1 [Compound 133]
> 10 µM		1 to 10 µM	COc1ccccc1CC1CCN(Cc2ccccc2)C1=O (centres unmarked) [Compound 60]
> 10 µM		1 to 10 µM	C[C@@H](c1ccccc1)N1CC[C@@H](CCc2ccc(N(C)C)cc2)C1=O [Compound 130]
> 10 µM		< 1 µM	C[C@@H](C[C@H]1CCN([C@@H](C)c2ccccc2)C1=O)c1ccccc1 [Compound 135]
1 to 10 µM		1 to 10 µM	C[C@@H](c1ccccc1)N1CC[C@H](CCc2c(F)cccc2Cl)C1=O [Compound 129]
> 10 µM		1 to 10 µM	COc1cc(CC2CCN(CCc3ccccc3)C2=O)ccc1OCc1ccccc1 (centres unmarked) [Compound 109]
< 1 µM		> 10 µM	Cc1cccc(C)c1CC1CCN(CCc2ccccc2)C1=O (centres unmarked) [Compound 83]
> 10 µM		1 to 10 µM	COc1ccc(C[C@@H]2CCN([C@@H](C)c3ccccc3)C2=O)cc1 [Compound 22]

IC50 (11b-HSD1 [1])	IC50 (11b-HSD2)	IC50 (11b-HSD1 [2])	Compound
> 10 µM		1 to 10 µM	N#Cc1ccccc1CC1CCN(Cc2ccccc2)C1=O (centres unmarked) [Compound 54]
> 10 µM		> 10 µM	CCC(CC1(CC(CC)c2ccccc2)CCN([C@@H](C)c2ccccc2)C1=O)c1ccccc1 (mixture of isomers) [Compound 165]
> 10 µM		1 to 10 µM	O=C1C(Cc2ccc3c(c2)OCO3)CCN1CCc1ccccc1 (centres unmarked) [Compound 89]
> 10 µM		1 to 10 µM	Cc1ccccc1CC1CCN(Cc2ccccc2)C1=O (centres unmarked) [Compound 55]
> 10 µM		< 1 µM	CC(C)(c1ccccc1)N1CCC(Cc2c(Cl)cccc2Cl)C1=O (centres unmarked) [Compound 115]
< 1 µM		1 to 10 µM	C[C@@H](c1ccccc1)N1CC[C@H](CCc2cccc3ccccc23)C1=O [Compound 75]
1 to 10 µM		> 10 µM	O=C1C(Cc2ccc(F)cc2Cl)CCN1CCc1ccccc1 (centres unmarked) [Compound 85]
> 10 µM		1 to 10 µM	C[C@H](c1ccccc1)N1CC[C@@H](Cc2ccccc2)C1=O [Compound 37]
> 10 µM		1 to 10 µM	O=C1[C@@H](Cc2c(Cl)cccc2Cl)CCN1[C@H](CO)c1ccccc1 [Compound 104]
> 10 µM		1 to 10 µM	COc1ccc(C[C@@H]2CCN([C@H](C)c3ccccc3)C2=O)cc1 [Compound 50]
1 to 10 µM		1 to 10 µM	Cc1cccc(C[C@H]2CCN([C@@H](C)c3ccccc3)C2=O)c1 [Compound 15]
1 to 10 µM		1 to 10 µM	COc1ccccc1CC[C@H]1CCN([C@@H](C)c2ccccc2)C1=O [Compound 124]
1 to 10 µM		> 10 µM	O=C1[C@@H](Cc2c(Cl)cccc2Cl)CCN1[C@@H](CO)c1ccccc1 [Compound 106]
< 1 µM		< 1 µM	O=C1[C@H](Cc2c(Cl)cccc2Cl)CCN1[C@H](CO)c1ccccc1 [Compound 105]
> 10 µM		> 10 µM	CC[C@]1(Cc2ccccc2C)CCN([C@H](C)c2ccccc2)C1=O [Compound 145]
> 10 µM		1 to 10 µM	C[C@H](c1ccccc1)N1CC[C@@H](Cc2cccc(Cl)c2Cl)C1=O [Compound 42]
> 10 µM		1 to 10 µM	Cc1cccc(CC2CCN(Cc3ccccc3)C2=O)c1 (centres unmarked) [Compound 56]
> 10 µM		1 to 10 µM	COC[C@H](c1ccccc1)N1CC[C@H](Cc2c(Cl)cccc2Cl)C1=O [Compound 98]
> 10 µM		1 to 10 µM	C[C@@H](c1ccccc1)N1CC[C@@H](CCc2ccccc2)C1=O [Compound 72]
1 to 10 µM		1 to 10 µM	Cc1ccccc1CC1CCN(CCCc2ccccc2)C1=O (centres unmarked) [Compound 110]
> 10 µM		> 10 µM	COc1ccc(CC[C@@H]2CCN([C@@H](C)c3ccccc3)C2=O)cc1OC [Compound 125]
1 to 10 µM		1 to 10 µM	C[C@@H](c1ccccc1)N1CC[C@@H](Cc2cccc(Cl)c2Cl)C1=O [Compound 12]
1 to 10 µM		> 10 µM	COC[C@@H](c1ccccc1)N1CC[C@H](Cc2c(Cl)cccc2Cl)C1=O [Compound 100]
1 to 10 µM		< 1 µM	Cc1ccc([C@H](O)[C@H]2CCN([C@@H](C)c3ccccc3)C2=O)c(C)c1 [Compound 91]
